# According to patent publication US20250134889A1, “TARGETING IRE1 KINASE AND FMRP FOR PROPHYLAXIS, MANAGEMENT AND TREATMENT OF ATHEROSCLEROSIS” (CEDARS-SINAI MEDICAL CENTER, priority 2022, published 2025):
# Test system: BMDM
# Experiment: In vitro efferocytosis
# Type: cell-based, mouse
# From the text: FIGS. 3A-3G depict that FMRP-deficiency increases efferocytosis in vivo. (For all images scale bar=50 μm; Red: Macrophages, Green: AC/AC-1, Violet: AC-2. Data are mean±SEM. Unpaired t-test with Welch's correction. * P≤0.05, ** P≤0.01, *** P≤0.001.) • 3A-3E. In vitro and in vivo efferocytosis experiments, where percentage of macrophages F4/80^+ (red) that ingested apoptotic cells (AC) labeled with carboxyfluorescein succinimidyl ester (CFSE)^+ (green) were reported as % efferocytosis. • 3A. BMDMs were transfected with Fmr1- or control-siRNA and incubated CFSE-labeled AC for the indicated hours (n=4). • 3B. Fmr1^+/+ and Fmr1^−/− BMDMs were treated with PA (500 μM) for 6 hours and then incubated with CFSE-labeled ACs for 4 hours (n=4). • 3C. Fmr1^+/+ and Fmr1^−/− mice were fed WD (16 weeks) and injected intraperitoneally with CFSE-labeled AC (1.5 hours), followed by PM elicitation (n=4-5). • 3D. BMDM were pre-treated either with vehicle (DMSO) or AMG-18 (5 μM) for 1 hour then incubated with CFSE-labeled ACs for 4 hours (n=4). • 3E. […] In vitro continuous efferocytosis experiments, where macrophages were stained for F4/80^+ (red), AC were labeled with CFSE (AC-1; green) or Violet (AC2; violet). % continuous efferocytosis was determined by the ratio of F4/80^+, CFSE^+ and Violet^+ (triple positive) cells to total F4/80^+/+ and CFSE^+ (double positive) cells. • 3F. […]
smiles,measurement,setting,value
Cc1ccc2c(NS(=O)(=O)c3ccccc3Cl)cccc2c1Oc1ncccc1-c1ccnc(N[C@H]2CCCNC2)n1 [AMG-18],continued efferocytosis of ACs,"AMG-18 5 μM 1 hour, AC-1 2 hours then AC-2 2 hours",enhanced
same,efferocytosis of ACs,"CFSE-labeled ACs, AMG-18 5 μM 1 hour then ACs 4 hours, siRNA transfected BMDM",increased
